For one series, the system named is spores of Foc TR4. Kind of series: Effect on spore morphology of Foc TR4 in Gauze's Medium #1, observed under a scanning electron microscope. The format is cell-based, Fusarium oxysporum f. sp. cubense tropical race 4. How it is done: XcA (the compound xerucitrinin A) at a final concentration of 3 mM was added to Gauze's Medium #1, and the filtered spore suspension of Foc was added, with a final spore concentration of 1×10^7 spores/mL. The control treatment was implemented by treating with the same volume of sterile water. The spore suspension was cultured at 28° C. in the dark for 24 h. The spores of Foc were collected and fixed in a 2.5% (v/v) glutaraldehyde solution at 4° C. overnight. The fixed spores were rinsed twice with 0.1 mol/L PBS (pH 7.4), dehydrated gradiently with 30%, 50%, 70%, 80%, 90%, 95%, and 100% ethanol solutions for 20 min, dried and subjected to gold spraying. The spore morphology of Foc TR4 was observed under a scanning electron microscope.

Series [1] concerns Brazilian banana seedlings. Briefly: Effect on the growth of Brazilian banana seedlings in treated Gauze's Medium #1. The format is in vivo. The following applies: 3 mM in Gauze's Medium #1; 6 Brazilian banana seedlings per treatment. The method, then: XcA was dissolved in ethanol. In order to investigate the effect of XcA on the growth of Brazilian banana, 3 mM XcA was added to Gauze's Medium #1. A volume of ethanol (CK) equal to the compound concentration was added to the control. A negative control was set up, and 200 μM 8-hydroxyquinoline (8HQ) was added to the Gauze's Medium #1. Then Brazilian banana seedlings were planted in a culture plate containing the above-mentioned treated medium. Each treatment had 6 replicates (6 Brazilian banana seedlings). The culture plate containing Brazilian banana seedlings was placed in a growth chamber to grow for 10 days to observe the effect on plant growth. Each treatment continued to grow for two months, during which an equal volume of sterile water was supplemented, and the plant height, root weight and seedling weight of each treatment were determined.

Series [2] in a line: Chrome azurol S (CAS) agar plate siderophore zone test for Fe-binding. The following applies: 200 μL of 0.2 mM compound solution in Oxford cup, let stand for 3 h. The method, then:
Chrome azurol S (CAS) agar plate, namely the siderophore screening medium consisting of 1 mL of 20% glucose solution, 3 mL of 10% casein, 100 μL of 1 mmoL/L CaCl2), 2 mL of 1 mmoL/L MgSO4, 100 mL of H2O, and 1.8 g of agar, was heated, and supplemented with 5 mL each of CAS dye solution and phosphate buffered saline (PBS) at 60° C. slowly to obtain a CAS-blue agar medium.
CAS dye solution included: 1 mmol/L CAS, 4 mmol/L hexadecyl trimethyl ammonium bromide, and 0.1 mmol/L FeCl3.
PBS (pH 6.8) included: 2.427 g of Na2HPO4.12H2O, 0.5905 g of NaH2PO4.2H2O, 0.075 g of KH2PO4, 0.250 g of NH4Cl, 0.125 g of NaCl, and 100 mL of H2O. All the above solutions were prepared with deionized water. […]
The Fe-binding ability of xerucitrinin A was detected by using the CAS agar plate. […] The growth of Foc TR4 is inhibited by binding Fe.

For the compound `Cc1c(O)c(C)c2c(c1O)CO[C@]1(C[C@H]3O[C@H](C)[C@@H](C)c4c(C)c(O)c(O)c(c43)O1)[C@H]2C` [xerucitrinin A], the “spore morphology of Foc” value with spores of Foc TR4 is “obvious crenation on the surface of the spores”. For the same compound, in the series with spores of Foc TR4 (3 mM in Gauze's Medium #1, 28° C. in the dark for 24 h), the “germination and growth of the spores of Foc” value is “affect the germination and growth of the spores of Foc”. Also, the “effect on the growth of banana seedlings compared with the control” value in series [1] is “no adverse effect on the growth of banana seedlings”. Moreover, in series [2], the “Fe-binding ability (siderophore zone around the Oxford cup)” value was “a siderophore zone appeared around the Oxford cup”.

These data come from patent publication US11825844B2, “Method for controlling Fusarium oxysporum f. sp. cubense tropical race 4” (GUANGXI UNIVERSITY, priority 2021, dated 2023).
